ChEMBL document CHEMBL1141830, “Stereoselective total synthesis of (3R,8S)-falcarindiol, a common polyacetylenic compound from umbellifers” (J Nat Prod, 1999)
Values after ≈ are worked out from the molar mass of the structure shown.

How the values were obtained:
Escherichia coli = experiment: Antimicrobial activity against Escherichia coli DC2; type: functional
Staphylococcus aureus [1] = experiment: Antimicrobial activity against methicillin-sensitive Staphylococcus aureus K147; type: functional
Staphylococcus aureus [2] = experiment: Antimicrobial activity against methicillin-resistant Staphylococcus aureus SAP0017; type: functional
Bacillus subtilis = experiment: Antimicrobial activity against Bacillus subtilis Vernon; type: functional
[3] = Antiproliferative activity against human MK1 cells by MTT assay; type: cell-based; conditions: read-out: ED50 (the source's name)

Q: Which results are given for `C=C[C@@H](O)C#CC#C[C@@H](O)/C=C\CCCCCCC` [FALCARINDIOL]?
A: MIC (Escherichia coli): 2.5 µg/mL (≈ 9.6 µM); MIC (Staphylococcus aureus [1]): 12.5 µg/mL (≈ 48 µM); MIC (Staphylococcus aureus [2]): 25 µg/mL (≈ 96 µM); MIC (Bacillus subtilis): 12.5 µg/mL (≈ 48 µM); GI50 [3]: 3.2 µg/mL (≈ 12.3 µM)
